# Test results taken from US8940719B2, “Lithocholic acid analogues that inhibit sialyltransferase” (Academia Sinica, priority 2006, dated 2015).
# Experiments:
# Rat liver α-2,3-ST = Rat liver α-2,3-ST (Rattus norvegicus (Rat), UniProt Q02734); experiment: α-2,3-ST inhibition assay (IC50), RP-HPLC of sialylated disaccharide product; type: biochemical; details: for IC50: α-2,3-ST, CMP-Neu5Ac substrate, triplicate, read-out: IC50
# Experimental: Compound synthesis was carried out with the following materials according the following general procedures. All chemicals and buffers were purchased from Sigma, Aldrich, or Acros Organics; and all amino acids were purchased from Advanced Chemtech. CMP-Neu5Ac was synthesized starting with sialic acid (Traving & Schauer, Cell. Mol. Life Sci., 1998, 54:1330; Schwarzkopf et al., Proc. Natl. Acad. Sci. USA, 2002, 99:5267). Synthesis of lactose acceptor was achieved as described in Harduin-Lepers et al., Biochimie, 2001, 83:727. Rat liver α-2,3-ST was obtained from CalBiochem at a concentration of 3.7 mU/μL, stored at −80° C., and used within one week. Melting points (m.p.) were recorded with a capillary melting point apparatus (Electrothermal MEL-TEMP); FT-IR spectra were recorded with Perkin Elmer FT-IR Spectrometer (Paragon 1000) in KBr pellets; ^1H and ^13C NMR spectra were recorded with Bruker AMX400 or 500 MHz instruments. Proton chemical shifts (δ) are reported in parts per million (ppm) relative to the methine singlet at 7.24 ppm for the residual CHCl3 in the deuteriochloroform, or the methyl pentet at 3.30 ppm for the residual CHD2OD in the methanol-d4. Carbon chemical shifts are reported in ppm relative to the internal ^13C signals in CDCl3 (77.0 ppm) and CD3OD-d4 (49.0 ppm). Mass spectra were obtained with a FAB JMS-700 double focusing mass spectrometer (JEOL, Tokyo, Japan), MALDI Voyager DE-PRO (Applied Biosystem Houston, USA), and ESI Finnigan LCQ mass spectrometer (Thermo Finnigan, San Jose, Calif., United States) in negative mode. […] The separation procedure was performed using H2O/0.1% trifluoroacetic acid (TFA) (A) and CH3CN/0.05% TFA (B) as eluents.
# (§1) Each compound was tested for α-2,3-ST inhibition using CMP-Neu5Ac as a substrate and a modified disaccharide with a 4,5-dimethoxy-2-nitrobenzyl group as a UV-labeled acceptor. Specifically, inhibition assays were performed in triplicate in reaction solution containing 200 mM MES buffer, 100 mM sodium chloride, 0.5 mM disodium-EDTA, 0.01% Triton X-100, 20 μM modified disaccharide, 1.4 mU α-2,3-ST and inhibitor (in dimethyl sulfoxide) in a total volume of 55. Reactions were incubated at 37° C. for 10 minutes at which point 1 mM CMP-Neu5Ac (to a final concentration 3 μM) was added. The solution was then incubated at 37° C. until a detectable amount of product was produced. The reaction was terminated by quenching the solution mixture with heat at 100° C. for 5 minutes. Enzyme activity was determined by monitoring the quantity of sialylated disaccharide product produced over time at 348 nm by RP-HPLC (Supelco Discovery® HS C18, 5 μm, 4.6 mm×25 cm).
# rat α-2,3-ST = rat α-2,3-ST (Rattus norvegicus (Rat), UniProt Q02734); experiment: Inhibition constant (Ki) determination, Lineweaver-Burk plot, varying CMP-Neu5Ac; type: biochemical; details: toward CMP-Neu5Ac
# Chain of rat α-2,3-ST (Q02734 whole entry): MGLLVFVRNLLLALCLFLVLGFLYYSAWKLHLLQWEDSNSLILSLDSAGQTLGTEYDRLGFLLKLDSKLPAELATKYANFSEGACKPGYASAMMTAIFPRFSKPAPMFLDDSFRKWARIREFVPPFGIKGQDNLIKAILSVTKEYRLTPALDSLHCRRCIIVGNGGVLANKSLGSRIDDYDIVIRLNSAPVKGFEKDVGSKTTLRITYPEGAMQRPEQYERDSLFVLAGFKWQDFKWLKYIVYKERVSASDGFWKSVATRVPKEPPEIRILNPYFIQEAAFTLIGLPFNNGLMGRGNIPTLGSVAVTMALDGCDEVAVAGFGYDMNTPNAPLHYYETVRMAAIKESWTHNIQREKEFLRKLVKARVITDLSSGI
# Experimental: as §1, with “cm). […]” for “cm).”
# Reactions were prepared in inhibition assay reaction solution described above and were incubated for 10 minutes after which 0.3, 0.15, and 0.037 mM CMP-Neu5Ac was added in the presence of inhibitor at 5, 4.5, 3.5, 2.5, and 0 μM. […] The absolute Ki value was determined from the horizontal intercept of a Lineweaver-Burk plot with […] on the vertical axis and inhibitor concentration on the horizontal axis (FIG. 1).
# α-2,3-ST = details: inhibition of α-2,3-ST, Hsu et al. 2005; cited from earlier work
# [1] = system: α-2,3-sialylated antigens on CL1-1 cells; experiment: Cell surface α-2,3-sialylated antigens by FLOW cytometry (FITC-MAL), CL1-1; type: cell-based; details: both 5 μM and 20 μM, five days
# Experimental: (§2) To determine whether α-2,3-ST inhibition alters cell surface glycosylation, lung cancer cells were treated with Lith-o-Asp and cell surface α-2,3-sialylated antigens were detected by FLOW cytometry. Cells were treated with α-2,3-ST inhibitor for five days after which 1×10^6 lung cancer cells were collected and washed twice with Hank's balanced salt solution (HBSS). Collected cells were incubated with FITC-conjugated MAL (1:50) at 37° C. for 15-20 minutes, non-binding MAL was removed by washing with HBSS, and 3×10^4 cells were detected on a FACScalibur instrument (Becton Dickinson). Two different lung cancer cell lines were tested: CL1-1 with low metastatic potential and CL1-5 with high metastatic potential. Since CL1-5 cells were derived from the CL1-1 line by an in vitro matrix gel invasion assay (Chen et al., Cancer Res., 2001, 61:5223), these cell lines share the same genetic background. Treatment of CL1-1 cells with Lith-o-Asp reduced expression of α-2,3-sialylated antigens to around 15% of DMSO treated control cells at both 5 μM and 20 μM (FIG. 4A). In contrast, Lith-o-Asp inhibited the expression of cell surface α-2,3-sialylated antigens in the highly metastatic CL1-5 lung cancer cells in a dose-dependent manner of greater than 15% (FIG. 4B).
# [2] = system: α-2,3-sialylated antigens on CL1-5 cells; experiment: Cell surface α-2,3-sialylated antigens by FLOW cytometry (FITC-MAL), CL1-5; type: cell-based; details: dose-dependent, five days
# Experimental: as §2
# CL1-5 lung cancer cells [3] = experiment: Cytotoxicity / cell growth, trypan blue exclusion; type: cell-based; details: 5 μM or 10 μM, 48 hours, FBS-free media
# Experimental: To determine the effect of the synthesized membrane-permeable α-2,3-ST inhibitors disclosed in Example 1 on cellular processes, in vitro cytotoxicity and adhesion assays were performed on the highly metastatic lung cancer cell line CL1-5. CL1-5 cells were plated at 1×10^6 cells per 60 mm culture dish in DMEM containing 10% fetal bovine serum (FBS) in 5% CO2. The following day the media was replaced with FBS-free media containing inhibitors at 5 μM or 10 μM concentration in DMSO. Controls cells were treated with 0.1% DMSO-containing medium without inhibitor. Cell number and viability were determined 48 hours later by trypan blue exclusion. Treatment with three α-2,3-ST inhibitors, N-Pentyonic (compound 21), Lith-Triethyl-de (compound 20), and Lith-o-Asp (compound 13), inhibited CL1-5 cell growth by between 10-20% compared to control (FIG. 2A).
# CL1-5 lung cancer cells [4] = experiment: Wound healing (cell migration) assay; type: cell-based; details: 10 μM, 48 hours, vs DMSO control
# Experimental: A section of cells was then scraped from the culture plate to form a gap, and cell migration into the “wound” was observation over 48 hours in the continuous presence of α-2,3-ST inhibitor.
# Chain of Rat liver α-2,3-ST (Q02734 whole entry): as above
smiles,measurement,setting,value
"C[C@H](CCCn1cc(CCCC(=O)O)nn1)C1CC[C@H]2C3CC[C@@H]4C[C@H](O)CC[C@]4(C)C3CC[C@]12C (stereo partly drawn) [Compound 22, 4-(1-((R)-4-((3R,5R,10S,13R,14S)-3-hydroxy-10,13-dimethyl-hexadecahydro-1H-cyclopenta[a]phenanthren-17-yl)pentyl)-1H-1,2,3-triazol-4-yl)butanoic acid]",IC50,"Rat liver α-2,3-ST",5 µM
same,Ki,"rat α-2,3-ST",2.2 µM
same,type of inhibition,"rat α-2,3-ST",noncompetitive inhibition
C[C@@H]1O[C@@H](O[C@H]2[C@H](O[C@H]3[C@H](O[C@H]4CC[C@@]5(C)[C@@H](CC[C@]6(C)[C@@H]5CC=C5[C@@H]7CC(C)(C)C[C@@H](O)[C@]7(C)CC[C@]56C)[C@@]4(C)CO)O[C@H](C(=O)O)[C@@H](O)[C@@H]3O)O[C@H](CO)[C@H](O)[C@@H]2O)[C@H](O)[C@H](O)[C@H]1O [Soyasaponin I],Ki,"α-2,3-ST",2100 µM
"C[C@H](CCC(=O)O)C1CC[C@H]2C3CC[C@@H]4C[C@H](OC(=O)[C@@H](N)CC(=O)O)CC[C@]4(C)C3CC[C@]12C (stereo partly drawn) [Compound 13, (R)-4-((3R,5R,10S,13R,14S)-3-((S)-2-amino-3-carboxypropanoyloxy)-10,13-dimethyl-hexadecahydro-1H-cyclopenta[a]phenanthren-17-yl)pentanoic acid]",fold potency over lithocholic acid,"Rat liver α-2,3-ST; vs lithocholic acid",2 fold
same,IC50,"Rat liver α-2,3-ST",12 µM
same,"expression of α-2,3-sialylated antigens, % of DMSO treated control cells",[1],around 15%
same,"inhibition of expression of cell surface α-2,3-sialylated antigens",[2],greater than 15%
same,inhibition of CL1-5 cell growth compared to control,CL1-5 lung cancer cells [3],10-20%
same,migration ability of CL1-5 cells,CL1-5 lung cancer cells [4]; listed as Lith-O-Asp,inhibited cell migration
same,migration ability of CL1-5 cells,CL1-5 lung cancer cells [4]; listed as Lith-o-Asp,significantly decreased
